Test results: patent US20240415878A1, “Compositions and Methods for Modulating Mitochondrial Function” (Board of Regents, The University of Texas System, priority 2021, published 2024)

Target: T1, MCU (Homo sapiens, UniProt Q8NE86)
T1 construct: endogenous in cells; host or cells: HeLa cells, permeabilized
T1 sequence (Q8NE86 51-351): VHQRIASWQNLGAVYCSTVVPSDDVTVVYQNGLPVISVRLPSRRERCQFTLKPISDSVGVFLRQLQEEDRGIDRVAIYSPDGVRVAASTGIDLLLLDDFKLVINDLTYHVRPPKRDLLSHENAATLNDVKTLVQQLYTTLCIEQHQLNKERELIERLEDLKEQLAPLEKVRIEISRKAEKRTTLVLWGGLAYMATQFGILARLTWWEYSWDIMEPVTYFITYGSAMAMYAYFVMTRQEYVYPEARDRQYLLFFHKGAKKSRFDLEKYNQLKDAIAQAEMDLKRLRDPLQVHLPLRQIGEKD
T1 sequence (Q9H4I9 48-107 partner limits assumed): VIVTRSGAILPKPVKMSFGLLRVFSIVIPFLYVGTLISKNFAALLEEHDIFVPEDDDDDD
Experiment: MCU-mediated mCa2+ uptake in permeabilized cells (spectrofluorometry)
Format: cell-based
Details: permeabilized cells (HeLa, 10 μM per FIG. 10H legend)
Procedure: Bacterial CorA forms a pentameric complex that selectively drives Mg2+ uptake in an electrogenic manner. […] Mrs2 is the eukaryotic homologue of CorA and contains two transmembrane domains with a well-conserved F/Y-G-M-N motif; therefore, CorA blockers were tested to determine if they alter Mrs2-mediated mMg^2+ uptake (Moomaw and Maguire, 2008). Digitonin permeabilized hepatocytes were utilized to measure the inhibitory effect and determine its IC50. Permeabilized cells were treated with CPACC followed by a 1 mM bolus of MgCl2 (FIG. 10B). A 1 mM Mg^2+ bolus was added after baseline recording, and the extramitochondrial Mg^2+ clearance was used as a read-out for Mrs2-mediated mMg^2+ uptake using Mag-Green as a Mg^2+ indicator. […] We next investigated Mrs2 inhibition in intact hepatocytes loaded with Mag-Green-AM. […] Next CPACC was examined to determine if it had any effect on MCU-mediated mCa^2+ uptake in permeabilized cells. […] The availability of the compound to intact cells was measured using graphite furnace atomic absorption spectroscopy (GFAAS) and bicinchoninic acid in parallel.
Spectrofluorimetric measurement of mitochondrial Mg^2+ and Ca^2+ dynamics and citrate mediated MagGreen fluorescence quenching. Fluorescence measurements were conducted in a multiwavelength excitation dual wavelength emission spectrofluorometer (Delta RAM, PTI, HORIBA). […]

In the case of [NH2][Co]([NH2])([NH2])([NH2])([NH2])[Cl] [CPACC, chloropentaammine cobalt (III) chloride], the “MCU-mediated mCa^2+ uptake” value is reported as “did not inhibit”.
